Paper PMC9754640, “Z-REX uncovers a bifurcation in function of Keap1 paralogs” (eLife, 2022)

Key:
hKeap1 [1] = target: T1, hKeap1 (Homo sapiens, UniProt Q14145); assay: Z-REX in zebrafish embryos, biotin-azide Click, streptavidin pulldown, western blot; details: covalent; alkyne-labelled compound released from Ht-PreDE (6 uM) in live embryos; also labelled by bolus DE
T1 construct: gene KEAP1; full-length, His6-HaloTag-TEV fusion (2xHA C-terminal in fish); TEV-cleaved after lysis, about 70 kDa; expressed in HEK293T cells or zebrafish embryos
T1 sequence (Q14145 whole entry, the tested form may be a part): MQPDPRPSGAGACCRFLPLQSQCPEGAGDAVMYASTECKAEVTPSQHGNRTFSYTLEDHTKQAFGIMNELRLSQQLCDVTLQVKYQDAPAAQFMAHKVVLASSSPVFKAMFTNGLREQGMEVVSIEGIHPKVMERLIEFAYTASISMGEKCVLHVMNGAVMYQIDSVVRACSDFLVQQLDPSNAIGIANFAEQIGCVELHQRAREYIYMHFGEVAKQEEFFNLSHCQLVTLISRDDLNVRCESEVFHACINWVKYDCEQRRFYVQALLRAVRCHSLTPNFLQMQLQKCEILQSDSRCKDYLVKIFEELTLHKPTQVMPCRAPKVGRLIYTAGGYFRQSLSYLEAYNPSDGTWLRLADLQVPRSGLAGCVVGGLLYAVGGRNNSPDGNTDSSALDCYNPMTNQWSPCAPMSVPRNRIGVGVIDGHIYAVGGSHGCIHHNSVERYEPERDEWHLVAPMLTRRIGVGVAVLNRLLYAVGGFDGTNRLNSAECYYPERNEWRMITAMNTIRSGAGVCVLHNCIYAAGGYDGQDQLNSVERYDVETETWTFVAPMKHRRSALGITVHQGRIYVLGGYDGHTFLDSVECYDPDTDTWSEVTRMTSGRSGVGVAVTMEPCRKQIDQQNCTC

hKeap1 [2] = target: T1, hKeap1; assay: T-REX photouncaging in HEK293T, TEV cleavage, Cy5-azide Click in-gel fluorescence; type: cell-based; details: covalent; alkyne-labelled compound released from Ht-PreHNE bound to HaloTag (25 uM in methods), live cells
zKeap1b [3] = target: T2, zKeap1b (Danio rerio, UniProt A0A2R8Q1W5); assay: as above; type: cell-based; details: covalent; alkyne-labelled compound released from Ht-PreHNE bound to HaloTag (25 uM in methods), live cells
T2 construct: gene keap1b; full-length, myc-HaloTag-TEV-3xFlag N-terminal fusion, TEV-cleaved after lysis; HEK293T expression
T2 sequence (A0A2R8Q1W5 1-593 isoform A0A2R8Q1W5-3): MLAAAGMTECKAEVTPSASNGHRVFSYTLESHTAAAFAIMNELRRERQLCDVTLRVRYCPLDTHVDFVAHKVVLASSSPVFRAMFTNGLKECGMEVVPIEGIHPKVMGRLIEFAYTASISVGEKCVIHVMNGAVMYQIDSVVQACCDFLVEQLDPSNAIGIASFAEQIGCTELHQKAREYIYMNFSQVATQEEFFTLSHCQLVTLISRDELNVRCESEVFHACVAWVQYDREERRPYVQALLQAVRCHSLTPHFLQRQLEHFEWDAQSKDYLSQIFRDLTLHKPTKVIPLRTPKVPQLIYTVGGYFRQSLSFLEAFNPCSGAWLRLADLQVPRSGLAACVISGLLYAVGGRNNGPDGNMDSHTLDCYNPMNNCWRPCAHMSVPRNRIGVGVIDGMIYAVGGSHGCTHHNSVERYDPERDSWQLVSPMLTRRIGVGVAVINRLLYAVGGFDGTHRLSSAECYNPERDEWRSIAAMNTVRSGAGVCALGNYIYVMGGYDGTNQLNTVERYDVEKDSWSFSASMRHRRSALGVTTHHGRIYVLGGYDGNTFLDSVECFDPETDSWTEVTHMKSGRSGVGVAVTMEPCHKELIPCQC

zKeap1a [4] = target: T3, zKeap1a (Danio rerio, UniProt Q1ECZ2); assay: as above; type: cell-based; details: covalent; alkyne-labelled compound released from Ht-PreHNE bound to HaloTag (25 uM in methods), live cells
T3 construct: gene keap1a; full-length, myc-HaloTag-TEV-3xFlag N-terminal fusion, TEV-cleaved after lysis; HEK293T expression
T3 sequence (Q1ECZ2 1-601): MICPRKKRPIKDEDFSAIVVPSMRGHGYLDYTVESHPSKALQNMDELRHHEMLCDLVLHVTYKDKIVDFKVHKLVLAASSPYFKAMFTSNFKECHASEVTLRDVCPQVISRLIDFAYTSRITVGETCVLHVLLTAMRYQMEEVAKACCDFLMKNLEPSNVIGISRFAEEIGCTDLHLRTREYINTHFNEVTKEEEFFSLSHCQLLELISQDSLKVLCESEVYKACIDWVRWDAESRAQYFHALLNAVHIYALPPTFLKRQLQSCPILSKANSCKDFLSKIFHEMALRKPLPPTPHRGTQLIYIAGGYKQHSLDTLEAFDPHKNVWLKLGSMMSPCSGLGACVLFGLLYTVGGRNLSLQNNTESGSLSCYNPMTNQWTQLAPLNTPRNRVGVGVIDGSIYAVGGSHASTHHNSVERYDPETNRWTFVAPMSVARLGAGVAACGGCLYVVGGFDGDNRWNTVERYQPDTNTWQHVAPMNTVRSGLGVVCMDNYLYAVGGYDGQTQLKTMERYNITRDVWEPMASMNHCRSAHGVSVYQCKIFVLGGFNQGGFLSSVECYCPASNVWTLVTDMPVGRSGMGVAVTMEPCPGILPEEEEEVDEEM

hKeap1 [5] = target: T4, hKeap1 (Homo sapiens, UniProt Q14145, C273I); assay: as above; type: cell-based; details: covalent; alkyne-labelled compound released from Ht-PreHNE bound to HaloTag (25 uM in methods), live cells
T4 construct: gene KEAP1; full-length, His6-HaloTag-TEV fusion (2xHA C-terminal in fish); TEV-cleaved after lysis, about 70 kDa; expressed in HEK293T cells or zebrafish embryos
T4 sequence (Q14145 whole entry C273I, the tested form may be a part): as the sequence (Q14145 whole entry, the tested form may be a part) above, with C273I counted along it

zKeap1b [6] = target: T2, zKeap1b; assay: as above; type: cell-based; details: covalent; alkyne-labelled compound released from Ht-PreNE bound to HaloTag (10 uM in legend, 25 uM in methods), live cells
hKeap1 [7] = target: T4, hKeap1; assay: as above; type: cell-based; details: covalent; alkyne-labelled compound released from Ht-PreNE bound to HaloTag (10 uM in legend, 25 uM in methods), live cells
zKeap1a [8] = target: T3, zKeap1a; assay: as above; type: cell-based; details: covalent; alkyne-labelled compound released from Ht-PreNE bound to HaloTag (10 uM in legend, 25 uM in methods), live cells
hKeap1 [9] = target: T1, hKeap1; assay: as above; type: cell-based; details: covalent; alkyne-labelled compound released from Ht-PreNE bound to HaloTag (10 uM in legend, 25 uM in methods), live cells

SMILES: C#CCCCC/C=C/C(C)=O [DE]
- Z-REX in zebrafish embryos, biotin-azide Click, streptavidin pulldown, western b (hKeap1 [1]): using DE as an example that hKeap1-labeling extent was similar to that achieved with HNE

SMILES: C#CCCCC(O)/C=C/C=O (stereo not drawn) [HNE]
- T-REX photouncaging in HEK293T, TEV cleavage, Cy5-azide Click in-gel fluorescenc (hKeap1 [2]): all four proteins sensed HNE equally well
- T-REX photouncaging in HEK293T, TEV cleavage, Cy5-azide Click in-gel fluorescenc (zKeap1b [3]): all four proteins sensed HNE equally well
- T-REX photouncaging in HEK293T, TEV cleavage, Cy5-azide Click in-gel fluorescenc (zKeap1a [4]): all four proteins sensed HNE equally well
- T-REX photouncaging in HEK293T, TEV cleavage, Cy5-azide Click in-gel fluorescenc (hKeap1 [5]): all four proteins sensed HNE equally well

SMILES: C#CCCCC/C=C/C=O [NE]
- targeting efficiency (zKeap1b [6]): zKeap1a/b, both of which sensed NE to the same extent
- targeting efficiency (hKeap1 [7]): hKeap1 and hKeap1(C273I) sensed NE marginally better than zKeap1a/b
- targeting efficiency (zKeap1a [8]): zKeap1a/b, both of which sensed NE to the same extent
- targeting efficiency (hKeap1 [9]): hKeap1 and hKeap1(C273I) sensed NE marginally better than zKeap1a/b
